Experiments:
in vitro [1] = experiment: in vitro; parameters: dose or concentration left out as unconfirmed; conditions: human, liver microsomes
in vitro [2] = experiment: in vitro; parameters: dose or concentration left out as unconfirmed; conditions: mouse, liver microsomes

Compound: CC(C)c1ccc(CC(=O)N2CCN(c3ccc(C#N)nn3)CC2)cc1
- CLint scaled at 4 h (in vitro [1]): 175 mL/min/kg
- CLint scaled at 4 h (in vitro [2]): 408 mL/min/kg
